# Data: US20120107428A1, “REPELLENTS FOR PESTIFEROUS SOCIAL WASPS” (Sterling International Inc., priority 2010, published 2012)
# Structures can show the parent of a compound that is named as a salt.
# How the values were obtained:
# [1] = system: Paper wasps (mainly Polistes dominulus, plus a few of P. aurifer); assay: Field trapping, Rescue W•H•Y traps baited with attractant AA/2MB: captures of paper wasps; assay type: in vivo; conditions: for Mean/trap/visit ± SE Paper wasps: attractant AA/2MB alone (row AA/2MB) or plus chemical, N 9; for decrease of trap catches of paper wasps: Experiment 9
# Protocol: (§1) Eleven field trapping experiments were carried out from late August to mid-October 2009 in residential and woody areas around Spokane, Wash., USA, mostly using the trap known by the designation Rescue® W•H•Y (except on one occasion that Rescue® Reusable Yellowjacket Traps were used for a natural food attractant; see below for details). The commercial W•H•Y trap has a top chamber and a bottom chamber and is described in U.S. Patent Application Publication No. 2009/0151228. The top chamber is baited with two attractants—one of which is a solid contained in a vial (2-methyl-1-butanol), and the other is a liquid mixed with water (acetic acid). The bottom chamber is baited with a liquid attractant (heptyl butyrate) poured onto a cotton pad. Separation of the two types of attractants (otherwise antagonistic to each other when released from the same chamber) in two chambers creates two focal attraction sources from one trap for different species of wasps, hornets, and yellowjackets. […] In a special occasion, the commercial Rescue® Reusable Yellowjacket Traps were each baited with 10 g of chopped bacon (loaded into a cartridge) as a natural protein food attractant. Traps were hung 1.5-2.0 m above the ground on either fences or tree branches ca. 5 m apart between each trap and at least 15 m between sets. For each trapping experiment, three sets of traps (i.e., three physical replicates of each treatment) were deployed with their initial trap positions within each set being randomized. To minimize positional effects and obtain more replications, wasp collections and trap re-randomization were carried out when 5-10 wasps were caught in the best traps. Each replicate lasted several days depending on wasp flight activity. Captured wasps were removed from the traps and kept in the zip-bags before returning to the laboratory for recording of the species, gender status, and catch. Repellent candidates (individuals or mixtures) were released from polyethylene bags (3×5 cm; with a fabric felt) with various thicknesses from 2-12 mil (see release rates listed in tables); they were employed inside the same trap chamber as the attractant.
# (§2) Experiment 1 tested five individual essential oils (pennyroyal, lemongrass, peppermint, clove, and citronella) and two known mosquito repellents (i.e., major components of catnip oil), E/Z-nepetalactone and Z/E-nepetalactone plus a blank control against a mixture of attractant [acetic acid (AA) and 2-methyl-1-butanol (2 MB)] using the W•H•Y traps (both attractant and repellent candidates were released from the top chamber) from for eight consecutive days from August to early September. Experiment 2 tested nine individual essential oils (ylang ylang, vetiver, myrrh, patchouli, geranium, eucalyptus, camphor, spearmint, and wintergreen) plus a blank control against a mixture of attractant (AA+2 MB) using the W•H•Y traps (both attractant and repellent candidates were released from the top chamber) for eight consecutive days from late August to early September. Experiment 3 tested seven individual essential oils (Roman chamomile, sage, fennel seed, rosemary, thyme, anise, and lavender) plus a blank control against a mixture of attractant (AA+2 MB) using the W•H•Y traps (both attractant and repellent candidates were released from the top chamber) for eight consecutive days from late August to early September. Experiment 4 tested two essential oil mixtures (3EO-mix: clove, geranium, and lemongrass in ca. 1:1:1 ratio; and 4EO-mix: clove, geranium, lemongrass, and rosemary in ca. 1:1:1:1 ratio) plus a blank control against a mixture of attractant (AA+2 MB) using the W•H•Y traps (both attractant and repellent candidates were released from the top chamber) for 13 consecutive days in September; the essential oil mixtures alone without attractant were tested in the same experiment.
# [2] = system: Yellowjackets (mainly Vespula pensylvanica (ca. 90%), plus V. vulgaris, V. germanica, and Dolichovespula maculata); assay: Field trapping, Rescue W•H•Y traps baited with attractant AA/2MB: captures of yellowjackets; assay type: in vivo; conditions: for Mean/trap/visit ± SE Yellowjackets: attractant AA/2MB alone (row AA/2MB) or plus chemical, N 9; for reduction of trap catches of yellowjackets: Experiment 9
# Protocol: as §1, §2
# [3] = system: worker antennae of Vespula pensylvanica, Dolichovespula maculata, Polistes dominulus, and P. aurifer; assay: GC-EAD/MS analysis of SPME headspace samples of essential oils: antennal responses; conditions: for antennal (EAD) response to component of rosemary oil: V. pensylvanica and D. maculata antennae, FIG. 3; for antennal (EAD) response to component of spearmint oil / antennal (EAD) response to component of pennyroyal oil / antennal (EAD) response to component of geranium oil: V. pensylvanica, D. maculata, P. dominulus, or P. aurifer antennae; for antennal (EAD) response to component of lemongrass oil: antennae of V. pensylvanica, D. maculata, and Polistes dominulus, FIG. 2
# Protocol: Headspace volatiles from greater than 10 types of essential oils (1 ml each in a closed 20 ml glass vial) were sampled via Solid-Phase Micro-Extraction (SPME) (CAR/PDMS, 85 μm, Supelco, Bellefonte, Pa.) for 20-30 sec before GC-EAD and GC-MS analyses.
# Paper wasp [European paper wasp (Polistes dominulus) or golden paper wasp (P. aurifer)] and yellowjacket [Western yellowjacket (Vespula pensylvanica) or Bald-faced hornet (Dolichovespula maculata)] workers for electrophysiological study were collected from their nests and kept alive at 4° C. before testing.
# SPME samples of the various essential oils were injected splitless into a Varian CP-3800 GC equipped with a polar column (HP-INNOWAX; 30 m×0.53 mm×1.0 μm film thickness; Agilent Technologies, Wilmington, Del., USA) and a 1:1 effluent splitter that allowed simultaneous flame ionization detection (FID) and electroantennographic detection (EAD) of either a yellowjacket or paper wasp worker antenna to the separated volatile compounds. Helium was used as the carrier gas, and the injector and detector temperatures were 250° C. and 300° C., respectively. Column temperature was 50° C. for 1 min, rising to 240° C. at 10° C./min, and then held for 10 min. The outlet for the EAD was held in a humidified air stream flowing at 0.5 m/sec over the antennal preparation. EAD recordings were made using silver wire-glass capillary electrodes filled with Beadle-Ephrussi Ringer on freshly cut antennae. The antennal signals were stored and analyzed on a PC equipped with a serial IDAC interface box and the program EAD ver. 2.5 (Syntech, Hilversum, The Netherlands).
# Compounds were identified by comparison of retention times with those of authentic standards and with mass spectra of standards.
# [4] = system: vespid wasps (paper wasps, hornets and yellowjackets); assay: Field trapping experiments, repellency stated for vespid wasps as a whole (yellowjackets and paper wasps; summaries); assay type: in vivo, Vespula pensylvanica; Polistes dominulus; conditions: Experiment 9; AA/2 MB
# Protocol: as §1, §2
# [5] = Table 7, Experiment 8, 13 days in September
# [6] = V. pensylvanica and P. dominulus worker antennae
# [7] = Table 9, Experiment 10, 18 days end of September through mid-October
# [8] = Table 8, Experiment 9, 13 days in September
compound,measurement,setting,value
"CC12CCC(CC1)C(C)(C)O2 [1,8-Cineole, 1,8-cineole]",Mean/trap/visit ± SE Paper wasps,[1]; [5],4.6 ± 1.8 a wasps/trap/visit
same,repellency at the doses tested,"[2]; Experiment 8, AA/2 MB",not significantly repellent
same,Mean/trap/visit ± SE Yellowjackets,[2]; [5],18.2 ± 4.1 b wasps/trap/visit
same,antennal (EAD) response to component of rosemary oil,[3],significant EAD-responses
same,antennal (EAD) response to component of lavender oil,[3]; [6],strong and repeatable antennal responses
same,antennal (EAD) response to component of sage oil,[3]; [6],strong and repeatable antennal responses
same,antennal (EAD) response to component of spearmint oil,[3],significant and consistent EAD-responses
"CCCCCC(O)CC (stereo not shown) [3-Octanol, 3-octanol]",Mean/trap/visit ± SE Paper wasps,[1]; [7],1.1 ± 0.8 a wasps/trap/visit
same,Mean/trap/visit ± SE Yellowjackets,[2]; [7],6.9 ± 2.4 ab wasps/trap/visit
same,antennal (EAD) response to component of pennyroyal oil,[3],significant and consistent EAD-responses
same,antennal (EAD) response to component of spearmint oil,[3],significant and consistent EAD-responses
CCCCCC(=O)CCC [4-nonanone],antennal (EAD) response to component of lemongrass oil,[3],strongly responded
"CC(=O)CCC=C(C)C [6-Methyl-5-hepten-2-one, 6-methyl-5-hepten-2-one]",Mean/trap/visit ± SE Paper wasps,[1]; [5],4.8 ± 2.3 a wasps/trap/visit
same,repellency at the doses tested,"[2]; Experiment 8, AA/2 MB",not significantly repellent
same,Mean/trap/visit ± SE Yellowjackets,[2]; [5],21.9 ± 3.8 b wasps/trap/visit
same,antennal (EAD) response to component of lemongrass oil,[3],strongly responded
"CC1=CC(=O)[C@H]2C[C@@H]1C2(C)C [(−)-Verbenone, (−)-verbenone]",Mean/trap/visit ± SE Paper wasps,[1]; [8],2.9 ± 0.9 ab wasps/trap/visit
same,activity at doses tested,[4],inactive
same,Mean/trap/visit ± SE Yellowjackets,[2]; [8],18.7 ± 5.9 b wasps/trap/visit
"CC(=O)OCc1ccccc1 [Benzyl acetate, benzyl acetate]",Mean/trap/visit ± SE Paper wasps,[1]; [7],0.9 ± 0.5 a wasps/trap/visit
same,Mean/trap/visit ± SE Yellowjackets,[2]; [7],8.2 ± 3.0 abc wasps/trap/visit
same,antennal (EAD) response to component of ylang ylang oil,[3]; [6],strong and repeatable antennal responses
"CC(C)=CCCC(C)CC=O (stereo not shown) [Citronellal, citronellal]",Mean/trap/visit ± SE Paper wasps,[1]; [7],0.4 ± 0.2 a wasps/trap/visit
same,Mean/trap/visit ± SE Yellowjackets,[2]; [7],11.4 ± 5.2 bc wasps/trap/visit
same,antennal (EAD) response to component of citronella oil,[3]; [6],strong and repeatable antennal responses
CC(C)=CCC/C(C)=C/C=O [E-citral],antennal (EAD) response to component of lemongrass oil,[3],strongly responded
"C=CCc1ccc(O)c(OC)c1 [Eugenol, eugenol]",decrease of trap catches of paper wasps,[1]; AA/2 MB,58%
same,Mean/trap/visit ± SE Paper wasps,[1]; [8],2.0 ± 0.5 ab wasps/trap/visit
same,reduction of trap catches of yellowjackets,[2]; AA/2 MB,> 95%
same,Mean/trap/visit ± SE Yellowjackets,[2]; [8],1.7 ± 0.7 a wasps/trap/visit
same,antennal (EAD) response to component of clove oil,[3]; [6],strong and repeatable antennal responses
"CC(C)=CCC/C(C)=C/COC=O [Geranyl formate, geranyl formate]",Mean/trap/visit ± SE Paper wasps,[1]; [5],5.8 ± 2.7 a wasps/trap/visit
same,repellency at the doses tested,"[2]; Experiment 8, AA/2 MB",not significantly repellent
same,Mean/trap/visit ± SE Yellowjackets,[2]; [5],28.2 ± 7.0 b wasps/trap/visit
same,antennal (EAD) response to component of geranium oil,[3],significant and consistent EAD-responses
"C=CC(C)(O)CCC=C(C)C (stereo not shown) [Linalool, linalool]",Mean/trap/visit ± SE Paper wasps,[1]; [5],5.2 ± 3.5 a wasps/trap/visit
same,repellency at the doses tested,"[2]; Experiment 8, AA/2 MB",not significantly repellent
same,Mean/trap/visit ± SE Yellowjackets,[2]; [5],23.9 ± 4.0 b wasps/trap/visit
same,antennal (EAD) response to component of lavender oil,[3]; [6],strong and repeatable antennal responses
same,antennal (EAD) response to component of ylang ylang oil,[3]; [6],strong and repeatable antennal responses
same,antennal (EAD) response to component of lemongrass oil,[3],strongly responded
"CC(C)[C@@H]1CC[C@@H](C)CC1=O [Menthone, menthone]",trap catch reduction to the paper wasps,"[1]; Experiment 8, AA/2 MB, not statistically different from the attractant alone",> 50%
same,Mean/trap/visit ± SE Paper wasps,[1]; [5],2.1 ± 1.3 a wasps/trap/visit
same,"yellowjackets caught, attractant plus compound versus attractant alone","[2]; Experiment 8, AA/2 MB",four times less
same,Mean/trap/visit ± SE Yellowjackets,[2]; [5],7.7 ± 3.4 a wasps/trap/visit
same,antennal (EAD) response to component of geranium oil,[3],significant and consistent EAD-responses
same,antennal (EAD) response to component of pennyroyal oil,[3],significant and consistent EAD-responses
"COC(=O)c1ccccc1 [Methyl benzoate, methyl benzoate]",Mean/trap/visit ± SE Paper wasps,[1]; [7],1.9 ± 0.8 ab wasps/trap/visit
same,Mean/trap/visit ± SE Yellowjackets,[2]; [7],5.2 ± 2.2 ab wasps/trap/visit
same,antennal (EAD) response to component of ylang ylang oil,[3]; [6],strong and repeatable antennal responses
"COC(=O)c1ccccc1O [Methyl salicylate, methyl salicylate]",Mean/trap/visit ± SE Paper wasps,[1]; [7],0.9 ± 0.5 a wasps/trap/visit
same,Mean/trap/visit ± SE Yellowjackets,[2]; [7],4.7 ± 2.0 ab wasps/trap/visit
same,antennal (EAD) response to component of wintergreen oil,"[3]; V. pensylvanica antennae, FIG. 12",strong antennal response
"CC(C)=C1CC[C@@H](C)CC1=O [Pulegone, pulegone]",Mean/trap/visit ± SE Paper wasps,[1]; [7],0.2 ± 0.1 a wasps/trap/visit
same,Mean/trap/visit ± SE Yellowjackets,[2]; [7],6.4 ± 1.8 abc wasps/trap/visit
same,antennal (EAD) response to component of pennyroyal oil,[3],significant and consistent EAD-responses
CC(C)=CCC/C(C)=C\C=O [Z-citral],antennal (EAD) response to component of lemongrass oil,[3],strongly responded
"CC(C)=CCCC(C)CCOC=O (stereo not shown) [citronyl formate, citronellyl formate]",antennal (EAD) response to component of geranium oil,[3],significant and consistent EAD-responses
"C=C(C)[C@H]1CC=C(C)C(=O)C1 [d-Carvone, d-carvone]",Mean/trap/visit ± SE Paper wasps,[1]; [7],0.9 ± 0.5 a wasps/trap/visit
same,Mean/trap/visit ± SE Yellowjackets,[2]; [7],4.9 ± 2.2 ab wasps/trap/visit
same,antennal (EAD) response to component of spearmint oil,[3],significant and consistent EAD-responses
Cc1ccc(C(C)C)cc1 [p-cymene],antennal (EAD) response to component of sage oil,[3]; [6],strong and repeatable antennal responses
CC1=CCC2CC1C2(C)C (stereo not drawn) [α-pinene],antennal (EAD) response to component of rosemary oil,[3],significant EAD-responses
same,antennal (EAD) response to component of sage oil,[3]; [6],strong and repeatable antennal responses
C=C1CC[C@@H]2[C@H]1[C@H]1[C@H](C(C)C)CC[C@]12C [β-bourberene],antennal (EAD) response to component of geranium oil,[3],significant and consistent EAD-responses
E/Z-citral,decrease of trap catches of paper wasps,[1]; AA/2 MB,88%
same,Mean/trap/visit ± SE Paper wasps,[1]; [8],0.6 ± 0.3 a wasps/trap/visit
same,reduction of trap catches of yellowjackets,[2]; AA/2 MB,more than 70%
same,Mean/trap/visit ± SE Yellowjackets,[2]; [8],11.6 ± 5.8 a wasps/trap/visit
cis/trans-rose oxides,antennal (EAD) response to component of geranium oil,[3],significant and consistent EAD-responses
α/β-thujone,Mean/trap/visit ± SE Paper wasps,[1]; [7],0.2 ± 0.1 a wasps/trap/visit
same,Mean/trap/visit ± SE Yellowjackets,[2]; [7],4.9 ± 1.6 ab wasps/trap/visit
same,antennal (EAD) response to component of sage oil,[3]; [6],strong and repeatable antennal responses
